Measurements: PMC6706930, “A novel oral micellar fenretinide formulation with enhanced bioavailability and antitumour activity against multiple tumours from cancer stem cells” (Journal of Experimental & Clinical Cancer Research : CR, 2019)

Test: Fecal excretion of 4-HPR and metabolites
Format: in vivo, mice
Design: Fecal excretion, amount: unit not given here
Experimental: The oral pharmacokinetics of Bio-nFeR were investigated in four independent groups of 24 mice, randomized to receive different treatment with the following fenretinide equivalent doses: 10, 50, 100 and 200 mg/Kg. The drug was administered by oral gavage and after treatment, blood samples were taken at 15 and 30 min and at 1, 2, 4, 8/10, 24 and 48 h and collected in heparinized tubes from the retro-orbital plexus of the mice under isoflurane anesthesia. Mice were then sacrificed by cervical dislocation and liver, kidney and brain were removed and immediately frozen in dry-ice for future determination. To obtain plasma, blood was centrifuged at 4000 rpm for 10 min at 4 °C. To evaluate fenretinide and metabolites excretion, urine and faeces were collected over a 0–24 h and 24–48 h periods. The collection was performed in three mice per group of treatment, individually housed into metabolic cages for urine and faeces collection. All the biological samples were stored at − 20 °C until analysis. To compare the absorption of Bio-nFeR to NCI-FeR and to study the bioavailability, another independent groups of 24 mice were randomized to receive an oral dose of 200 mg/Kg of NCI-FeR. Blood samples were taken at the time reported above. Twenty-four hours fractions of urine and faeces were collected in three mice per group of treatment. Plasma and the other biological specimens were stored at − 20 °C until analysis. Chronic study: the oral pharmacokinetic of Bio-nFeR in comparison with NCI-FeR were also investigated after chronic administrations. Mice were divided in three independent groups, randomized to receive a single treatment of 150 mg/Kg or different repeated treatments of 150 mg/Kg, daily for 2 weeks (12 days on and 2 days off), or 100 mg/Kg bi-daily for 1 week (5 days on 2 days off). Bio-nFeR and NCI-FeR were administered by oral gavage, collecting blood samples at 0.5, 1, 2, 4, 8/10 and 24 h, the day of the single treatment and at 0, 1, 2, 4, 8/10, 24 and 48 h after the last dose of both the chronic treatments. The procedures of blood collection, plasma preparation, sacrifice of mice and storing of samples were as reported in acute study. Also during chronic treatment, excretions of fenretinide and metabolites in urine and faeces were determined collecting the specimens in three mice per group, both at the start of treatment and at the end of the repeated administration. All the collected samples were stored at − 20 °C until analysis.
The determination of fenretinide in plasma of mice and the others biological samples was determined according to a method specifically developed and validated for the quantification of fenretinide (4-HPR) based on liquid chromatography-tandem mass spectrometry (LC–MS/MS) (manuscript in preparation). The procedure of sample preparation and quantification can be summarized as follows. 30 μL aliquot of plasma was added with 3 ng of deuterated internal standard (^2H4 4-HPR), deproteinized by mean of 90 μL of acetonitrile and centrifuged 5 min at 13200 rpm at room temperature. The supernatant was recovered and 5 μL injected into a HPLC system (Series 200, Perkin Elmer, MA, USA). Chromatographic separation was achieved on a Gemini-C18 column (50 mm × 2.0 mm, 5 μm particle size; Phenomenex Inc., Torrance, CA, USA) at 32 °C protected with a Security Guard™ ULTRA cartridges C18. The detection obtained by Mass spectrometric detection was carried out on a triple quadrupole API 4000 mass spectrometer (Sciex, MA, USA) equipped with atmospheric pressure chemical ionization source (APCI) operating in positive ion mode monitoring the transitions 392.3 > 283.2 m/z for 4-HPR and 396.3 > 283.2 m/z for the deuterated internal standard. To assay study samples, a calibration curve of six points (range: 1.0–500.00 ng/mL) was prepared in control mouse plasma assessing the precision and the accuracy of the run analyzing at the same time a set of freshly prepared quality controls samples. […]

[1] = 2 wks 1 daily dose 150 mg/kg Bio-nFeR
[2] = 2 wks 1 daily dose 150 mg/kg NCI-FeR
[3] = feces after 24 hours, acute Bio-nFeR 10 mg/kg
[4] = feces after 24 hours, acute Bio-nFeR 50 mg/kg
[5] = feces after 24 hours, acute Bio-nFeR 100 mg/kg
[6] = feces after 24 hours, acute Bio-nFeR 200 mg/kg
[7] = feces after 24 hours, acute NCI-FeR 200 mg/kg
[8] = single admin. 150 mg/kg Bio-nFeR
[9] = single admin. 150 mg/kg NCI-FeR

| Fecal excretion, amount [1] | Fecal excretion, percent (in brackets) [1] [%] | Fecal excretion, amount [2] | Fecal excretion, percent (in brackets) [2] [%] | Fecal excretion, amount [3] | Fecal excretion, percent (in brackets) [3] [%] | Fecal excretion, amount [4] | Fecal excretion, percent (in brackets) [4] [%] | Fecal excretion, amount [5] | Fecal excretion, percent (in brackets) [5] [%] | Fecal excretion, amount [6] | Fecal excretion, percent (in brackets) [6] [%] | Fecal excretion, amount [7] | Fecal excretion, percent (in brackets) [7] [%] | Fecal excretion, amount [8] | Fecal excretion, percent (in brackets) [8] [%] | Fecal excretion, amount [9] | Fecal excretion, percent (in brackets) [9] [%] | proportion of Bio-nFeR and NCI-FeR eliminated in faeces (acute treatment at multiple doses and chronic treatment) | SMILES |
| --- | --- | --- | --- | --- | --- | --- | --- | --- | --- | --- | --- | --- | --- | --- | --- | --- | --- | --- | --- |
| 97.4 | 4.2 | 270 | 7.6 | 4.7 | 3.2 | 38.2 | 4.0 | 33.6 | 1.9 | 77.4 | 2.5 | 153.4 | 5.5 | 129.5 | 6.1 | 247.1 | 9.2 | – | CC1=C(/C=C/C(C)=C/C=C/C(C)=C/C(=O)Nc2ccc(O)cc2)C(C)(C)CCC1 [4-HPR, 4-hydroxy (phenyl)retinamide, reference compound] |
| 97.5 | 4.2 | 201.1 | 6.6 | 47 | 32.6 | 253.8 | 26.5 | 85.5 | 4.9 | 129.8 | 4.3 | 115.6 | 3.9 | 108.4 | 5.0 | 103.7 | 4.2 | – | CC1=C(/C=C/C(C)=C/C=C/C(C)=C/C(=O)Nc2ccc(O)cc2)C(C)(C)CCC1=O [4-oxo-4-HPR] |
| 0.9 | 0.0 | 0.8 | 0.0 | 0.03 | 0.02 | 0.5 | 0.05 | 0.7 | 0.04 | 1.2 | 0.05 | 0.4 | 0.02 | 1.6 | 0.1 | 0.4 | 0.02 | less than 0.1% | COc1ccc(NC(=O)\C=C(C)/C=C/C=C(C)\C=C\C2=C(C)CCCC2(C)C)cc1 [MPR] |
